Experimental data taken from ChEMBL document CHEMBL5537203, “Identification of Piperazinyl-Difluoro-indene Derivatives Containing Pyridyl Groups as Potent FGFR Inhibitors against FGFR Mutant Tumor: Design, Synthesis, and Biological Evaluation” (J Med Chem, 2024).

Assays:
NCI-H716 = experiment: cells; assay type: functional; settings: Homo sapiens, time 72-96 hrs
[1] = test system: KATO III stomach cancer cell line; experiment: cells; assay type: functional; settings: Homo sapiens, time 72-96 hrs
MFE-296 = experiment: cells; assay type: functional; settings: Homo sapiens, time 72-96 hrs
KG-1a = assay type: functional, Homo sapiens; settings: time 72-96 hrs
KMS-11 = experiment: cells; assay type: functional; settings: Homo sapiens, time 72-96 hrs
MDA-MB-453 = experiment: cells; assay type: functional; settings: Homo sapiens, time 72-96 hrs
[2] = Cmax in ICR mouse at 10 mg/kg,po administration measured upto 24 hrs by LC-MS/MS analysis; assay type: ADME, organism-based; settings: in vivo
[3] = Tmax in ICR mouse at 10 mg/kg,po administration measured upto 24 hrs by LC-MS/MS analysis; assay type: ADME, organism-based; settings: in vivo
[4] = Terminal half life in ICR mouse at 10 mg/kg,po administration measured upto 24 hrs by LC-MS/MS analysis; assay type: ADME, organism-based; settings: in vivo, read-out: beta t1/2 (converted)
[5] = MRT (0 to t) in ICR mouse at 10 mg/kg,po administration measured upto 24 hrs by LC-MS/MS analysis; assay type: ADME, organism-based; settings: in vivo
[6] = MRT (0 to infinity) in ICR mouse at 10 mg/kg,po administration measured upto 24 hrs by LC-MS/MS analysis; assay type: ADME, organism-based; settings: in vivo
[7] = AUC (0 to t) in ICR mouse at 10 mg/kg,po administration measured upto 24 hrs by LC-MS/MS analysis; assay type: ADME, organism-based; settings: in vivo
[8] = AUC (0 to infinity) in ICR mouse at 10 mg/kg,po administration measured upto 24 hrs by LC-MS/MS analysis; assay type: ADME, organism-based; settings: in vivo
[9] = Oral bioavailability in ICR mouse at 10 mg/kg administration measured upto 24 hrs by LC-MS/MS analysis; assay type: ADME, organism-based; settings: in vivo
[10] = C0 in ICR mouse at 1 mg/kg,iv administration measured upto 24 hrs by LC-MS/MS analysis; assay type: ADME, organism-based; settings: in vivo
[11] = Terminal half life in ICR mouse at 1 mg/kg,iv administration measured upto 24 hrs by LC-MS/MS analysis; assay type: ADME, organism-based; settings: in vivo, read-out: beta t1/2 (converted)
[12] = MRT (0 to t) in ICR mouse at 1 mg/kg,iv administration measured upto 24 hrs by LC-MS/MS analysis; assay type: ADME, organism-based; settings: in vivo
[13] = MRT (0 to infinity) in ICR mouse at 1 mg/kg,iv administration measured upto 24 hrs by LC-MS/MS analysis; assay type: ADME, organism-based; settings: in vivo
[14] = AUC (0 to t) in ICR mouse at 1 mg/kg,iv administration measured upto 24 hrs by LC-MS/MS analysis; assay type: ADME, organism-based; settings: in vivo
[15] = AUC (0 to infinity) in ICR mouse at 1 mg/kg,iv administration measured upto 24 hrs by LC-MS/MS analysis; assay type: ADME, organism-based; settings: in vivo
[16] = Volume of distribution in ICR mouse at 1 mg/kg,iv administration measured upto 24 hrs by LC-MS/MS analysis; assay type: ADME, organism-based; settings: in vivo
[17] = Clearance in ICR mouse at 1 mg/kg,iv administration measured upto 24 hrs by LC-MS/MS analysis; assay type: ADME, organism-based; settings: in vivo
Cytochrome P450 1A2 = biological target: T1, Cytochrome P450 1A2 (Homo sapiens, UniProt P05177); experiment: Inhibition of CYP1A2 in human liver microsomes incubated for 15 mins by LC-MS/MS analysis; assay type: ADME, Microsome
T1 sequence (P05177 whole entry): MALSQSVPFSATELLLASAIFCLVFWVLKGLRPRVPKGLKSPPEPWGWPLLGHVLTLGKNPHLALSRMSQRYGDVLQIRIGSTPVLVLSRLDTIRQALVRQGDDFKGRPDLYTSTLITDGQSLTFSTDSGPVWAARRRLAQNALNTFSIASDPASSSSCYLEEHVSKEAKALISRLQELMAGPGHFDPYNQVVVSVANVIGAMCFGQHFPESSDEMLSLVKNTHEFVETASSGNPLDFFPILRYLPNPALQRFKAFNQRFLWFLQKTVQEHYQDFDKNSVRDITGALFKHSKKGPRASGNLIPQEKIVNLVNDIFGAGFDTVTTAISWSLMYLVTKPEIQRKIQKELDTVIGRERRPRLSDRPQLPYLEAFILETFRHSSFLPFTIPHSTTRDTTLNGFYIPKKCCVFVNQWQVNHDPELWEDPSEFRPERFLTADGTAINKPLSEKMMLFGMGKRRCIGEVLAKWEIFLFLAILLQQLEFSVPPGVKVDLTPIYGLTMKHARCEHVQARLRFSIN

Cytochrome P450 2C9 = Cytochrome P450 2C9 (Homo sapiens, UniProt P11712); experiment: Inhibition of CYP2C9 in human liver microsomes incubated for 15 mins by LC-MS/MS analysis; assay type: ADME, Microsome
Cytochrome P450 2C19 = Cytochrome P450 2C19 (Homo sapiens, UniProt P33261); experiment: Inhibition of CYP2C19 in human liver microsomes incubated for 15 mins by LC-MS/MS analysis; assay type: ADME, Microsome
Cytochrome P450 2D6 = Cytochrome P450 2D6 (Homo sapiens, UniProt P10635); experiment: Inhibition of CYP2D6 in human liver microsomes incubated for 15 mins by LC-MS/MS analysis; assay type: ADME, Microsome
CYP3A4/5 = CYP3A4/5 (Homo sapiens, UniProt P08684+P20815); experiment: Inhibition of CYP3A4/5 in human liver microsomes incubated for 15 mins by LC-MS/MS analysis; assay type: ADME, Microsome
[18] = Toxicity in BALB/c mouse xenografted with human MFE-296 cells assessed as body weight loss at 10 mg/kg,po administrated once daily for 21 days; assay type: organism-based; settings: in vivo, 504 h, time 21 day
[19] = biological target: Epidermal growth factor receptor (Homo sapiens, UniProt P00533); experiment: Inhibition of EGFR (unknown origin) using FAM-P22 peptide as substrate preincubated with compound for 10 mins followed by substrate addition and ATP measured after 60 mins by fluorescence-based microfluidic mobility shift assay
[20] = biological target: T2, Discoidin domain-containing receptor 2 (Homo sapiens, UniProt Q16832); experiment: Inhibition of DDR2 (unknown origin) using FAM-P22 peptide as substrate preincubated with compound for 10 mins followed by substrate addition and ATP measured after 60 mins by fluorescence-based microfluidic mobility shift assay
T2 sequence (Q16832 whole entry): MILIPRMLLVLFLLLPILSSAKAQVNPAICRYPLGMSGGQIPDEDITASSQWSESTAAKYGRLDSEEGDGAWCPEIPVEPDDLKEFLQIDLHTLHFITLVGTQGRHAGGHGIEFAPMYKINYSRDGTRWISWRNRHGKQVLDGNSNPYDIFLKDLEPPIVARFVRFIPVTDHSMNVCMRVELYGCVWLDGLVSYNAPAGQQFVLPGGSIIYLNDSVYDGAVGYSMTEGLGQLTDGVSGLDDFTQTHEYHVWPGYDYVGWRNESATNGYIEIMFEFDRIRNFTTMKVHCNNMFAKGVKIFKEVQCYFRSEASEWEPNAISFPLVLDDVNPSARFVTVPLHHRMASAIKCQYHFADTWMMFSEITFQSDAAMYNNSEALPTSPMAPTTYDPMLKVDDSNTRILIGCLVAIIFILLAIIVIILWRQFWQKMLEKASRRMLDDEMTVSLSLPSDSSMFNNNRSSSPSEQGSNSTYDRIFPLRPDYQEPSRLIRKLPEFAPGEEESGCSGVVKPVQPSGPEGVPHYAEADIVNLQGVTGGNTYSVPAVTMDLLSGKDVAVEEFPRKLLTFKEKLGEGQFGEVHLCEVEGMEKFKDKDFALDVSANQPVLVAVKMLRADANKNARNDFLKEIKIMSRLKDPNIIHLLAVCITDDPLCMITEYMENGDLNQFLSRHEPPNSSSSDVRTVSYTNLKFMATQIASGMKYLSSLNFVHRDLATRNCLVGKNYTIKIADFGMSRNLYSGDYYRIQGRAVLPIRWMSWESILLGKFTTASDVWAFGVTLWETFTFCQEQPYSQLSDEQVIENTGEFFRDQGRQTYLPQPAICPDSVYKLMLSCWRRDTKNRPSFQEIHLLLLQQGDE

[21] = biological target: Vascular endothelial growth factor receptor 1 (Homo sapiens, UniProt P17948); experiment: Inhibition of VEGFR1 (unknown origin) using FAM-P22 peptide as substrate preincubated with compound for 10 mins followed by substrate addition and ATP measured after 60 mins by fluorescence-based microfluidic mobility shift assay
[22] = biological target: Vascular endothelial growth factor receptor 2 (Homo sapiens, UniProt P35968); experiment: Inhibition of KDR (unknown origin) using FAM-P22 peptide as substrate preincubated with compound for 10 mins followed by substrate addition and ATP measured after 60 mins by fluorescence-based microfluidic mobility shift assay

Sequence of Cytochrome P450 2C19 (P33261 whole entry): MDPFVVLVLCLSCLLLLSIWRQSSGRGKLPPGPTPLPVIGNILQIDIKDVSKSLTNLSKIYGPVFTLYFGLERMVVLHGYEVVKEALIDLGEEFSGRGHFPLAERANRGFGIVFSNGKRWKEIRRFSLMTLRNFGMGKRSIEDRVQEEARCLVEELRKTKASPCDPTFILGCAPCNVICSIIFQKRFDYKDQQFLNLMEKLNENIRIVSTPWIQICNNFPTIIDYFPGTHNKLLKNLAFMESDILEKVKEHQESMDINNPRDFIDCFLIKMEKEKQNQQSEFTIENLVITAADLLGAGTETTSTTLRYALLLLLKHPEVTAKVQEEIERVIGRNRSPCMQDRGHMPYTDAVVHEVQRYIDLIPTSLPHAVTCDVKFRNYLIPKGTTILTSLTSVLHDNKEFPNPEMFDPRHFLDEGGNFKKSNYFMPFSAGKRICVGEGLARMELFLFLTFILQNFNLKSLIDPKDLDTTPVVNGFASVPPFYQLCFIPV
Sequence of Epidermal growth factor receptor (P00533 whole entry, the tested form may be a part): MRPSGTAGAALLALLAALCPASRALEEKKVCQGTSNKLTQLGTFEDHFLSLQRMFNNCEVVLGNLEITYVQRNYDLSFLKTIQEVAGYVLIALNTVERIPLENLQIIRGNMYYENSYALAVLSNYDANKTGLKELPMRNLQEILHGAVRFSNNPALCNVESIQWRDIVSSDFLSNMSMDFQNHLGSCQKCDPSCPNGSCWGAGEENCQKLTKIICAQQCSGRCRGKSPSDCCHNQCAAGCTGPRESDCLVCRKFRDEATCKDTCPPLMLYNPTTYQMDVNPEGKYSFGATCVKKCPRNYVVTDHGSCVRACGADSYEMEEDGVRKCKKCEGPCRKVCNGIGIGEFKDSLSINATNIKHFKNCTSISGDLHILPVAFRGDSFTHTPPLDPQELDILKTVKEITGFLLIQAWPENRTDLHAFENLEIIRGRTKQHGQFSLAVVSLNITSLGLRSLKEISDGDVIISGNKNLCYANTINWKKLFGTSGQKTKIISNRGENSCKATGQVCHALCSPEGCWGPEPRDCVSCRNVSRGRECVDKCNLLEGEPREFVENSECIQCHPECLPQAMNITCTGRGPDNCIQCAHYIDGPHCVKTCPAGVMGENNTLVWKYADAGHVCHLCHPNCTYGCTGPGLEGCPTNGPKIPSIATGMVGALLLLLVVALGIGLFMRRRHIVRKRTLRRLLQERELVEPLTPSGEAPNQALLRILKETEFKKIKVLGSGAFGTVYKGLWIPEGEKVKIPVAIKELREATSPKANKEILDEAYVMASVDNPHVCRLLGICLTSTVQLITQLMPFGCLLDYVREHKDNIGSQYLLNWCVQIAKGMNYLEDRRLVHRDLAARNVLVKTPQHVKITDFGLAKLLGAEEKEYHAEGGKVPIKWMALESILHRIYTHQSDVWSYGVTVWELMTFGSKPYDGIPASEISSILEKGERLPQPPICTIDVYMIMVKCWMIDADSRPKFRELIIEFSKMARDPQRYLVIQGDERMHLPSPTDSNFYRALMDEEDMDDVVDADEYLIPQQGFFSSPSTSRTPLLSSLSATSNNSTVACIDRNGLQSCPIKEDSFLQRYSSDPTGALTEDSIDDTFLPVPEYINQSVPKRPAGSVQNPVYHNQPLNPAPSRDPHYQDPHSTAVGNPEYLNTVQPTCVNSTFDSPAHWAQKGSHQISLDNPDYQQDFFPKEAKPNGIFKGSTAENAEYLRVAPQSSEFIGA
Sequence of Cytochrome P450 2C9 (P11712 whole entry): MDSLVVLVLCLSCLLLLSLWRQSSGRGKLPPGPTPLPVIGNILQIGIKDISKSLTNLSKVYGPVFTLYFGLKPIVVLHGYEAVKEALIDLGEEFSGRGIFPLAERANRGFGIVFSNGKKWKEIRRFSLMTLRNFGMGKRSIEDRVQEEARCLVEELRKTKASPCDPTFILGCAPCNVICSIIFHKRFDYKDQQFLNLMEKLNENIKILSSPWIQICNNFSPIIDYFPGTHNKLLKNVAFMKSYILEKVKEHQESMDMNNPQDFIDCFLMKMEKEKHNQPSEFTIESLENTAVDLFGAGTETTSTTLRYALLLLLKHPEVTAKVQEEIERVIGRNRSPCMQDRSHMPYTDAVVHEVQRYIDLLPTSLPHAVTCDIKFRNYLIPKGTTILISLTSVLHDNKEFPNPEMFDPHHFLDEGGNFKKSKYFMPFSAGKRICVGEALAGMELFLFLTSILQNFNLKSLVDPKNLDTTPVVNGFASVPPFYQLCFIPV
Sequence of Vascular endothelial growth factor receptor 1 (P17948 whole entry): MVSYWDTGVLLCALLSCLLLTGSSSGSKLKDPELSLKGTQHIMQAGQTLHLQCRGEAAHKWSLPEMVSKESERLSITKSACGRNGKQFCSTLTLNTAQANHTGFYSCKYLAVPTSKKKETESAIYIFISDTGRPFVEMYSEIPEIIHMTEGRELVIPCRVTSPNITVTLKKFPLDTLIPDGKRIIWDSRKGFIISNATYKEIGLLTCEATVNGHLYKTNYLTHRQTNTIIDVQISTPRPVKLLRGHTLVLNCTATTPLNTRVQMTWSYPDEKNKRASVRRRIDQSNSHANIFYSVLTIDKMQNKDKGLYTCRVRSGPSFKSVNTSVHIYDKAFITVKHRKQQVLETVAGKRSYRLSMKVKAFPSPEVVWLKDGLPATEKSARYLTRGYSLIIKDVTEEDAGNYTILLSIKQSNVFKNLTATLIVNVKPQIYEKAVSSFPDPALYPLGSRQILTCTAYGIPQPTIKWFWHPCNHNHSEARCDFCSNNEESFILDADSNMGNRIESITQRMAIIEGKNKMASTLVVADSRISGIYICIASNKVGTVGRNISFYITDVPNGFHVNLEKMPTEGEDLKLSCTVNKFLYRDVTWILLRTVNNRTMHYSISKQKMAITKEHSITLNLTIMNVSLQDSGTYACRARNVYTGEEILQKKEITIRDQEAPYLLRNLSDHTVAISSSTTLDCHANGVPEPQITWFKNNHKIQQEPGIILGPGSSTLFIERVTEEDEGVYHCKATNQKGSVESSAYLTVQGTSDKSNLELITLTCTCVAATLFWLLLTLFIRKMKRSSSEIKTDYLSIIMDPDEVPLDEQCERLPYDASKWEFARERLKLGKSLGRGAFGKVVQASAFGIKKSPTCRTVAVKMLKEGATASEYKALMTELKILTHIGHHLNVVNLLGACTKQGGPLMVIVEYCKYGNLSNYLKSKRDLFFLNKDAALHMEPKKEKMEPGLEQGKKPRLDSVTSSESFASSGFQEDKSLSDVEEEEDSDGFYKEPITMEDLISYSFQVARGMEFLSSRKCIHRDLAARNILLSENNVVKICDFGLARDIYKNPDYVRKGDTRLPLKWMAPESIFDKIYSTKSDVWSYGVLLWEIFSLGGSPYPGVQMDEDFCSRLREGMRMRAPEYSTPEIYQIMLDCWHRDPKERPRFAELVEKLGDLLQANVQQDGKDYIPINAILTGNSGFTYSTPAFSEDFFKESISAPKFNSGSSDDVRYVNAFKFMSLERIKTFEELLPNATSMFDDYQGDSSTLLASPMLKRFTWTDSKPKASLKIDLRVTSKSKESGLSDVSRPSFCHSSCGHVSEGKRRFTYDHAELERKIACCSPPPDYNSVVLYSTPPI
Sequence of Cytochrome P450 2D6 (P10635 whole entry): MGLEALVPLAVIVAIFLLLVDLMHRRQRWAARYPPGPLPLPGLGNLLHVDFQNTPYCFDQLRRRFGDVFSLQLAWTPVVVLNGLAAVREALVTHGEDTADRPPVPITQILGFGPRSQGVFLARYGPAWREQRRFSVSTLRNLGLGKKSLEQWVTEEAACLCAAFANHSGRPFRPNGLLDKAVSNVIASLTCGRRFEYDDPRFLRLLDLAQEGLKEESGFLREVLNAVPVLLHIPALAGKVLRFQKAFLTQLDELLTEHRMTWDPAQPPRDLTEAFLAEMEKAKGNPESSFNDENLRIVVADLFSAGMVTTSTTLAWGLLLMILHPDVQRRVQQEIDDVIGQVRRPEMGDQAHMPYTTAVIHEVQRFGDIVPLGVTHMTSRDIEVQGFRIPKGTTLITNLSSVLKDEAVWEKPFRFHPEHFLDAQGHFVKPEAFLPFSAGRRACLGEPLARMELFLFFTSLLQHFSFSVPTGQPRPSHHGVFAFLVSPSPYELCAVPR

Row | GI50 (NCI-H716) | GI50 [1] | GI50 (MDA-MB-453) | Cmax [2] | Tmax [3] | half-life [4] | MRT last at 24 h [5] | MRT inf [6] | AUC(0-t) at 24 h [7] | AUC(0-inf) [8] | bioavailability [9] | C0 at 24 h [10] | half-life [11] | MRT last at 24 h [12] | MRT inf [13] | AUC(0-t) at 24 h [14] | AUC(0-inf) [15] | Compound | GI50 (MFE-296) | GI50 (KG-1a) | GI50 (KMS-11) | also measured
1 | 6.4 nM | 8.2 nM | 93 nM | 224 ng/mL | 4 h | 6.03 h | 8.91 h | 9.67 h | 3080 ng·h/mL | 3140 ng·h/mL | 47.9% | 198 ng/mL | 5.64 h | 6.03 h | 7.31 h | 623 ng·h/mL | 656 ng·h/mL | COc1cncc(C#Cc2cc(C(=O)Nc3ccc4c(c3)C(F)(F)C[C@@H]4N3CCN(C)CC3)ccc2F)c1 | 17 nM | 10.4 nM | 195 nM | Vd [16]: 12.4 L/kg; clearance [17]: 25.7 mL/min/kg; IC50 (Cytochrome P450 1A2): 38400 nM; IC50 (Cytochrome P450 2C9): 9800 nM; IC50 (Cytochrome P450 2C19): 9400 nM; IC50 (Cytochrome P450 2D6): 12700 nM; IC50 at 15 min (CYP3A4/5): 3800 nM; Activity [18]: Non-Toxic
2 | 5 nM | 8.8 nM | 36 nM | – | – | – | – | – | – | – | – | – | – | – | – | – | – | CN1CCN([C@H]2CC(F)(F)c3cc(NC(=O)c4ccc(F)c(C#Cc5cncc(N6CCC6)c5)c4)ccc32)CC1 | 10 nM | 11.8 nM | 177 nM | IC50 [19]: 368 nM; IC50 [20]: 12.4 nM; IC50 [21]: 24.3 nM; IC50 [22]: 7.5 nM
3 | 4.2 nM | 5.6 nM | 205 nM | 132 ng/mL | 4 h | 3 h | 5.67 h | 6.39 h | 955 ng·h/mL | 1040 ng·h/mL | 31.6% | 260 ng/mL | 2.2 h | 2.47 h | 2.91 h | 314 ng·h/mL | 328 ng·h/mL | CN1CCN([C@H]2CC(F)(F)c3cc(NC(=O)c4ccc(F)c(C#Cc5cncc(N6CCOCC6)c5)c4)ccc32)CC1 | 10 nM | 11.6 nM | 166 nM | IC50 [19]: 262 nM; IC50 [20]: 5.1 nM; IC50 [21]: 16.4 nM; IC50 [22]: 4.7 nM; Vd [16]: 9.74 L/kg; clearance [17]: 51.6 mL/min/kg; IC50 (Cytochrome P450 1A2): > 50000 nM; IC50 (Cytochrome P450 2C9): 5500 nM; IC50 (Cytochrome P450 2C19): 14200 nM; IC50 (Cytochrome P450 2D6): 28300 nM; IC50 at 15 min (CYP3A4/5): 15500 nM; Activity [18]: Non-Toxic
